Data: patent US20250059187A1, “COVALENTLY BINDING INHIBITORS OF G12S, G12D AND/OR G12E MUTANTS OF K-RAS GTPASE” (The Regents of the University of California, priority 2021, published 2025)

Columns and labels:
Type in all cases: binding
wild type K-Ras [1] = molecular target: T1, wild type K-Ras (Homo sapiens, UniProt P01116); test: Covalent modification of test protein after incubation with compound; settings: 24-h incubation with 100 μM compound at 23° C. at pH 7.5
T1 construct: human K-Ras (wildtype, aa 1-169); 6xHis tag + TEV cleavage site (N, cleaved yes); made in house; host or cells: E. coli BL21(DE3)

wild type K-Ras [2] = molecular target: T1, wild type K-Ras; test: Covalent modification of recombinant wild-type K-Ras by whole-protein mass spectrometry; settings: 23° C.; for % covalent modification of wild type K-Ras: 24-h incubation, 100 μM compound, pH 7.5
Procedure: (§1) Test compounds were prepared as 100× stock solutions in DMSO. K-Ras proteins were diluted with SEC Buffer (20 mM HEPES 7.5, 150 mM NaCl, 1 mM MgCl2) to 400 nM or 1 μM. In a typical reaction, 0.5 μL 100× compound stock was mixed with 50 μL diluted K-Ras protein, and the resulting mixture was incubated for the desired amount of time. The extent of modification was assessed by electrospray mass spectrometry using a Waters Xevo G2-XS system equipped with an Acquity UPLC BEH C4 1.7 μm column. The mobile phase was a linear gradient of 5-95% acetonitrile/water+0.05% formic acid. For kinetic measurements, a 2× compound solution was first prepared in SEC Buffer, which was then mixed with 400 nM K-Ras(G12S) protein at 1:1 (v/v) ratio. Injection time stamps were used to calculate elapsed time.
as §1, with “K-Ras(G12D)” for “K-Ras(G12S)”

K-Ras G12D = molecular target: T2, K-Ras G12D (Homo sapiens, UniProt P01116, G12D); test: Covalent modification of test protein after incubation with compound; settings: 24-h incubation with 100 μM compound at 23° C. at pH 7.5
T2 construct: human K-Ras (G12D, aa 1-169); 6xHis tag + TEV cleavage site (N, cleaved yes); made in house; host or cells: E. coli BL21(DE3)

K-Ras G12E = molecular target: T3, K-Ras G12E (Homo sapiens, UniProt P01116, G12E); test: as above; settings: 24-h incubation with 100 μM compound at 23° C. at pH 7.5
T3 construct: human K-Ras (G12E, aa 1-169); 6xHis tag + TEV cleavage site (N, cleaved yes); made in house; host or cells: E. coli BL21(DE3)

K-Ras(G12S) = K-Ras(G12S) (Homo sapiens, UniProt P01116, G12S); test: Covalent modification of recombinant K-Ras(G12S) by whole-protein mass spectrometry; set-up: human K-Ras (G12S, aa 1-169); 6xHis tag + TEV cleavage site (N, cleaved yes); made in house; host or cells: E. coli BL21(DE3); settings: 23° C.; for % covalent modification of K-Ras G12S: 24-h incubation, 100 μM compound, pH 7.5
Procedure: as §1, with “The mobile phase was a linear gradient of 5-95% acetonitrile/water+0.05% formic acid.” left out
as §1, with “The mobile phase was a linear gradient of 5-95% acetonitrile/water+0.05% formic acid.” left out, “K-Ras(G12D)” for “K-Ras(G12S)”

| Structure (SMILES) | % covalent modification of wild type K-Ras (wild type K-Ras [1]) [%] | % covalent modification of wild type K-Ras (wild type K-Ras [2]) [%] | % covalent modification of K-Ras G12D (K-Ras G12D) [%] | % covalent modification of K-Ras G12E (K-Ras G12E) [%] | covalent reaction with K-Ras(G12S)·GDP (K-Ras(G12S); 10 μM compound) | % covalent modification of K-Ras G12S (K-Ras(G12S)) [%] | covalent adducts with wild-type K-Ras protein (wild type K-Ras [2]; 10 μM compound, 4 μM protein) |
| --- | --- | --- | --- | --- | --- | --- | --- |
| CN1CCC[C@H]1COc1nc2c(c(N3CCC4OC(=O)C4C3)n1)CCN(c1cccc3cccc(Cl)c13)C2 (stereo partly shown) [2′] | 0 | 0 | 6.0 | 7.0 | did not yield any covalent adduct | 23.0 | neither of these compounds formed covalent adducts |
| C[C@@H]1C(=O)O[C@H]1C(=O)N1[C@@H]2CC[C@H]1CN(c1nc(OCC34CCCN3CCC4)nc3c(F)c(-c4cccc5cccc(Cl)c45)ncc13)C2 [(2R, 3S)-3] | 0 | – | 100 | – | – | – | – |
| CC(C)[C@@H]1C(=O)O[C@H]1C(=O)N1[C@@H]2CC[C@H]1CN(c1nc(OCC34CCCN3CCC4)nc3c(F)c(-c4cccc5cccc(Cl)c45)ncc13)C2 [(2R, 3S)-4] | 0 | – | 100 | – | – | – | – |
| C#Cc1cccc2cccc(-c3ncc4c(N5C[C@H]6CC[C@@H](C5)N6C(=O)[C@@H]5OC(=O)[C@H]5C(C)C)nc(OCC56CCCN5CCC6)nc4c3F)c12 [(2R, 3S)-5] | 0 | – | 100 | 0 | – | – | – |
| C#Cc1c(F)ccc2cc(O)cc(-c3ncc4c(N5C[C@H]6CC[C@@H](C5)N6C(=O)[C@@H]5OC(=O)[C@H]5C(C)C)nc(OC[C@@]56CCCN5C[C@H](F)C6)nc4c3F)c12 [(2R, 3S)-6] | 0 | – | 100 | 0 | – | – | – |
| O=C1C[C@H](C(=O)N2[C@@H]3CC[C@H]2CN(c2nc(OCC45CCCN4CCC5)nc4c(F)c(-c5cccc6cccc(Cl)c56)ncc24)C3)O1 [(R)-2] | 0 | – | 100 | – | – | – | – |
| Cc1ccc2[nH]ncc2c1-c1cc2ncnc(N3CC(C(=O)N[C@H]4COC4=O)C3)c2cc1Cl [Compound 03-099] | 18.6 | – | 23.4 | 16.8 | – | – | – |
| Cc1ccc2[nH]ncc2c1-c1cc2ncnc(N3CC(C(=O)N[C@@H]4COC4=O)C3)c2cc1Cl [Compound 03-100] | 22.6 | – | 17.7 | 18.5 | – | – | – |
| O=C1O[C@@H]2CCN(c3ncnc4c(F)c(-c5ccccc5F)c(Cl)cc34)C[C@H]12 [Compound 04-005] | 0 | 0 | 0 | 0 | – | 0 | – |
| Cc1ccc2[nH]ncc2c1-c1cc2ncnc(N3CCC(C(=O)N[C@H]4COC4=O)CC3)c2cc1Cl [Compound 04-022] | 4.6 | – | 4.1 | 2.1 | – | – | – |
| Cc1ccc2[nH]ncc2c1-c1cc2ncnc(N3CCC(C(=O)N[C@@H]4COC4=O)CC3)c2cc1Cl [Compound 04-023] | 1.5 | – | 2.7 | 2.1 | – | – | – |

The next lines start with results.

| % covalent modification of wild type K-Ras (wild type K-Ras [1]) [%] | % covalent modification of wild type K-Ras (wild type K-Ras [2]) [%] | % covalent modification of K-Ras G12D (K-Ras G12D) [%] | % covalent modification of K-Ras G12E (K-Ras G12E) [%] | covalent reaction with K-Ras(G12S)·GDP (K-Ras(G12S); 10 μM compound) | % covalent modification of K-Ras G12S (K-Ras(G12S)) [%] | Structure (SMILES) | covalent adducts with wild-type K-Ras protein (wild type K-Ras [2]; 10 μM compound, 4 μM protein) |
| --- | --- | --- | --- | --- | --- | --- | --- |
| 8.0 | 8.0 | 2.4 | 7.4 | – | 0 | CC1(c2cc(NCC(=O)N3CC[C@H]4OC(=O)[C@H]4C3)c(O)cc2Cl)CC1 [Compound 06-092] | – |
| 4.8 | 4.8 | 2.4 | 5.3 | – | 0 | CC1(c2cc(NCC(=O)N3CC[C@H]4C(=O)O[C@H]4C3)c(O)cc2Cl)CC1 [Compound 06-093] | – |
| 0 | – | 0 | – | – | – | CC1(c2cc(NCC(=O)N[C@H]3COC3=O)c(O)cc2Cl)CC1 [Compound 06-094] | – |
| 0 | – | 0 | – | – | – | CC1(c2cc(NCC(=O)N[C@@H]3COC3=O)c(O)cc2Cl)CC1 [Compound 06-095] | – |
| 0 | 0 | 0 | 0 | – | – | CC1(c2cc(NCC(=O)N3CC[C@H]4OC(=O)[C@@]4(C)C3)c(O)cc2Cl)CC1 [Compound 08-043] | – |
| 0 | 0 | 0 | 0 | – | – | CC1(c2cc(NCC(=O)N3CC[C@@]4(C)C(=O)O[C@H]4C3)c(O)cc2Cl)CC1 [Compound 08-044] | – |
| 0 | 0 | 0 | 0 | – | 19.0 | CN1CCC[C@@H]1COc1nc2c(c(N3CC[C@@]4(C)C(=O)O[C@H]4C3)n1)CCN(c1cccc3cccc(Cl)c13)C2 [Compound 12-028] | – |
| 0 | 0 | 0 | 0 | – | 0 | CN1CCC[C@@H]1COc1nc2c(c(N3CC[C@H]4OC(=O)[C@@]4(C)C3)n1)CCN(c1cccc3cccc(Cl)c13)C2 [Compound 12-044] | – |
| 6.0 | 6.0 | 5.0 | 7.0 | – | 94.0 | CN1CCC[C@@H]1COc1nc2c(c(N3C[C@@H]4OC(=O)[C@@H]4C3)n1)CCN(c1cccc3cccc(Cl)c13)C2 [Compound 12-058] | – |
| 0 | 0 | 0 | 0 | – | 0 | CN1CCC[C@@H]1COc1nc2c(c(N3CCC4(CC3)CNC4=O)n1)CCN(c1cccc3cccc(Cl)c13)C2 [Compound 12-064] | – |
| 0 | 0 | 0 | 0 | – | 0 | CN1CCC[C@@H]1COc1nc2c(c(N3CCN4C(=O)C[C@H]4C3)n1)CCN(c1cccc3cccc(Cl)c13)C2 [Compound 12-074] | – |
| 7.5 | 7.5 | 6.9 | 8.6 | – | 100 | CN1CCC[C@@H]1COc1nc2c(c(N3CC[C@H]4C(=O)O[C@H]4C3)n1)CCN(c1cccc3cccc(Cl)c13)C2 [Compound 12-077] | – |
